Data taken from US5726181A, “Formulations and compositions of poorly water soluble camptothecin derivatives” (BioNumerik Pharmaceuticals, Inc., priority 1995, dated 1998).
Values after ≈ are worked out from the molar mass of the structure shown. Read-outs that look alike come from different tables or passages of the source.

How the values were obtained:
[1] = system: topoisomerase I-DNA cleavable complex; conditions: cited from earlier work
[2] = system: DNA strand breaks; conditions: cited from earlier work
[3] = system: mice; conditions: more toxic than SCPT; cited from earlier work
[4] = system: advanced gastrointestinal cancer; conditions: in vivo; cited from earlier work
[5] = system: human patients; conditions: human, in vivo; cited from earlier work
[6] = system: L1210 cells; conditions: cited from earlier work
[7] = system: human patients with cancer; conditions: Phase I and Phase II human trials; cited from earlier work
[8] = system: Topoisomerase I; conditions: purified from human colon carcinoma cells; cited from earlier work
[9] = Solubility of camptothecin in various solvents; format: physicochemical; conditions: for solubility: read-out: Solubility, Concentration
[10] = greater than carboxylate form; cited from earlier work
[11] = lactone form, pH of 2 to 6; cited from earlier work
[12] = system: Topoisomerase I; conditions: purified from calf thymus; cited from earlier work
[13] = system: topoisomerase II; conditions: cited from earlier work
[14] = animals; cited from earlier work

Compound: CC[C@@]1(O)C(=O)OCc2c1cc1n(c2=O)Cc2cc3ccccc3nc2-1 [Camptothecin, camptothecin]
- Stabilization of the topoisomerase I cleavable complex, reversibility [1]: readily reversible
- Protein-associated DNA single-strand breaks [2]: induces protein-associated DNA single-strand breaks
- Protein linkage of DNA strand breaks ([2]; in vitro cells): Virtually all of the DNA strand breaks observed in vitro cells treated with camptothecin are protein linked
- Toxicity of lactone form relative to SCPT [3]: 10 fold
- Clinical value in gastrointestinal cancer (conclusion) [4]: a drug of protean and unpredictable toxicity that has no clinical value in the management of gastrointestinal cancer
- Renal excretion [5]: excreted unchanged by the kidneys
- Protein-free DNA breaks [6]: an increase in unexplained protein-free breaks
- Toxicity in early trials [7]: unpredictable myelosuppression and hemorrhagic cystitis
- Inhibition of topoisomerase I [8]: inhibited
- Solubility, Concentration ([9]; N-Methyl-2-pyrrolidinone (NMP)): 15000 to 20000 µg/mL
- solubility ([9]; benzyl alcohol, organic solvent or mixture, Benzyl alcohol): 1670 µg/mL (≈ 4810 µM)
- solubility ([9]; dimethylacetamide, organic solvent or mixture, Dimethylacetamide): 5000 µg/mL (≈ 14400 µM)
- solubility ([9]; dimethylisosorbide, organic solvent or mixture, Dimethylisosorbide): 928 µg/mL (≈ 2660 µM)
- solubility ([9]; ethanol, organic solvent or mixture, Ethanol): 51 µg/mL (≈ 146 µM)
- solubility ([9]; milli-q water): 0.2 µg/mL (≈ 0.574 µM)
- solubility ([9]; n-methyl-2-pyrrolidinone (nmp), organic solvent or mixture, N-Methyl-2-pyrrolidinone (NMP)): > 15000 µg/mL
- solubility ([9]; peg 300, organic solvent or mixture, PEG 300): 706 µg/mL (≈ 2030 µM)
- solubility ([9]; propylene glycol, organic solvent or mixture, Propylene glycol): 281 µg/mL (≈ 807 µM)
- Anti-tumor activity of lactone relative to carboxylate form [10]: greater than 10 fold
- Water solubility [11]: less than 5 micrograms in one milliliter o
- Inhibition of topoisomerase I [12]: inhibited
- Effect on topoisomerase II [13]: no effect on topoisomerase II
- Transport into bile [14]: extremely active transport of camptothecin into bile
